Test results reported in BindingDB's records for doi:10.1021/jm801354e (University of Illinois At Chicago, 2009).
pEC50, pKi: −log10 of the molar value. Counter-ions that a name gives are not always drawn.

Experiments:
[1] = target: T1, 5-hydroxytryptamine receptor 2C (Homo sapiens, UniProt P28335); assay: Agonist activity at human 5HT2C receptor expressed in HEK293 cells assessed as calcium flux by FLIPR assay
T1 sequence (P28335 whole entry): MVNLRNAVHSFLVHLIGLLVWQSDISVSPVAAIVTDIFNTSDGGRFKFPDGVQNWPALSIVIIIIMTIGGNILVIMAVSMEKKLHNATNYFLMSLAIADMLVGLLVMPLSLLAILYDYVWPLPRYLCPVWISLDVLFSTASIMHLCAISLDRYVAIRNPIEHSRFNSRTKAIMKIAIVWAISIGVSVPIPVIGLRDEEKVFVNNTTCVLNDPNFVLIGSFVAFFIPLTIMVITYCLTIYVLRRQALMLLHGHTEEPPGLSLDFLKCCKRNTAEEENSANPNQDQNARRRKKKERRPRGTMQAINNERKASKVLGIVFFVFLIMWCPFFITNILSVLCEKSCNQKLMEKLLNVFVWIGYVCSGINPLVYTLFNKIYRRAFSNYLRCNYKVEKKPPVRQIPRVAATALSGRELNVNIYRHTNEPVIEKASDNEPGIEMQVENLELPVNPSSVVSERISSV

[2] = target: T2, 5-hydroxytryptamine receptor 2B (Homo sapiens, UniProt P41595); assay: Agonist activity at human 5HT2B receptor expressed in HEK293 cells assessed as calcium flux by FLIPR assay
T2 sequence (P41595 whole entry): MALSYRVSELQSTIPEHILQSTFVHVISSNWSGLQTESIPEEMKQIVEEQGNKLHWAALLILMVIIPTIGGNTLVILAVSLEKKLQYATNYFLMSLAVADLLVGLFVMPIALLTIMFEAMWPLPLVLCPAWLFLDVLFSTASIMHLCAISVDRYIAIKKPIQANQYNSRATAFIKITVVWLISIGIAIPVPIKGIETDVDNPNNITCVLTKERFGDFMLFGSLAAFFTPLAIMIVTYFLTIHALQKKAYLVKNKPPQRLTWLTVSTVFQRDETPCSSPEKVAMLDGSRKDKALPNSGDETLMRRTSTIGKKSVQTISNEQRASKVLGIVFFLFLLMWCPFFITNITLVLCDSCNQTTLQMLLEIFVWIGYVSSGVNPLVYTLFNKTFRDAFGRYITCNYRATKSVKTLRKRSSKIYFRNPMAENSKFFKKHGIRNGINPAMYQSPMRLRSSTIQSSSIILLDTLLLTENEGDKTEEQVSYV

[3] = target: T3, 5-hydroxytryptamine receptor 2A (Homo sapiens, UniProt P28223); assay: Agonist activity at human 5HT2A receptor expressed in HEK293 cells assessed as calcium flux by FLIPR assay
T3 sequence (P28223 whole entry): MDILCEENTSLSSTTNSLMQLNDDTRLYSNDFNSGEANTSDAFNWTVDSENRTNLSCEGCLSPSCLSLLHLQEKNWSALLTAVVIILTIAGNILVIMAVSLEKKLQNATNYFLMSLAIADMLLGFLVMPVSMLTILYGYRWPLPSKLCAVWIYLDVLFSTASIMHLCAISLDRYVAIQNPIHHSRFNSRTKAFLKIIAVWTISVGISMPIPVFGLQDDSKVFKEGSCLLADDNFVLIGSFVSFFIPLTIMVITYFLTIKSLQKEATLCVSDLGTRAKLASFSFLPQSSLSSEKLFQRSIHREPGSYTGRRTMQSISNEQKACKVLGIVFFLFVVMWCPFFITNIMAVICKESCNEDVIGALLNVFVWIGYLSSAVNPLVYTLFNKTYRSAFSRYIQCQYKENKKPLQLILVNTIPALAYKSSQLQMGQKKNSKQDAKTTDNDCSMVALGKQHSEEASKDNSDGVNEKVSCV

[4] = target: T2, 5-hydroxytryptamine receptor 2B; assay: Displacement of [3H]LSD from human 5HT2B receptor
[5] = target: T1, 5-hydroxytryptamine receptor 2C; assay: Displacement of [3H]mesulergine from 5HT2C receptor
[6] = target: T3, 5-hydroxytryptamine receptor 2A; assay: Displacement of [3H]ketanserin from human 5HT2A receptor
[7] = target: Sodium-dependent dopamine transporter (Homo sapiens, UniProt Q01959); assay: Displacement of [3H]WIN-35428 from DAT
Sodium-dependent dopamine transporter, sequence (Q01959 whole entry): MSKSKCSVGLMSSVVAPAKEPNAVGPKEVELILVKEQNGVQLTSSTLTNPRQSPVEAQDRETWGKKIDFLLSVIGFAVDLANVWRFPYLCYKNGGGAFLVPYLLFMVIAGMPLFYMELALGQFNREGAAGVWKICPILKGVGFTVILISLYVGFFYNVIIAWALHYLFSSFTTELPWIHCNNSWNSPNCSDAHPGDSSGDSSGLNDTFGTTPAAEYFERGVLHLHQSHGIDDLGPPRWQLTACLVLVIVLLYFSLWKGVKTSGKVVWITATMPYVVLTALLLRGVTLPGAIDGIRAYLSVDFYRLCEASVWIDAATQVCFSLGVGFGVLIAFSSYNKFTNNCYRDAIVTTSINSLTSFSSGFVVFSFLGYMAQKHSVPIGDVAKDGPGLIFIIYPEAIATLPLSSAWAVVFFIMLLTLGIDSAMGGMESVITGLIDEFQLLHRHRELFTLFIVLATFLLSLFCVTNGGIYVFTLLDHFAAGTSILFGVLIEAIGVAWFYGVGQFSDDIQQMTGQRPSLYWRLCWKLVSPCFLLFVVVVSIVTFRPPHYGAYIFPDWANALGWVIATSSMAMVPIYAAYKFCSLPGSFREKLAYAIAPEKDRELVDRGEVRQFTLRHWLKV

[8] = target: Sodium-dependent serotonin transporter (Homo sapiens, UniProt P31645); assay: Displacement of [3H]citalopram from SERT
Sodium-dependent serotonin transporter, sequence (P31645 whole entry): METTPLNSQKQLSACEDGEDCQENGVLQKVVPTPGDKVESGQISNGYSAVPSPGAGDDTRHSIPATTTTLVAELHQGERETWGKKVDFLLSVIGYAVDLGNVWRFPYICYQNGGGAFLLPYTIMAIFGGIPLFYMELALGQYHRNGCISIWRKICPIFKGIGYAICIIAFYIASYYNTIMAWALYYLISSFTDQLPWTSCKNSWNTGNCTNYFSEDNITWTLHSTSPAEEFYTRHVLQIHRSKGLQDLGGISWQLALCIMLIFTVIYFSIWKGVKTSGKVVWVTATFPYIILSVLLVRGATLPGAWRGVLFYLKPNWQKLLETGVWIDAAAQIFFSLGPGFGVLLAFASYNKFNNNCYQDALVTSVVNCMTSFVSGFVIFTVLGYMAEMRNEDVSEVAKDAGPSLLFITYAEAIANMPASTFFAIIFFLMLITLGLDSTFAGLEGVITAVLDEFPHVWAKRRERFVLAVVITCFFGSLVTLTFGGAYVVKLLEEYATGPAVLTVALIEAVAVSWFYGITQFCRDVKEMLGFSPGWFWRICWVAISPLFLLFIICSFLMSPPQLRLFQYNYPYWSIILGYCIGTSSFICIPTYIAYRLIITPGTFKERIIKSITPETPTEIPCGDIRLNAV

[9] = target: Sodium-dependent noradrenaline transporter (Homo sapiens, UniProt P23975); assay: Displacement of [3H]nisoxetine from NET
Sodium-dependent noradrenaline transporter, sequence (P23975 whole entry): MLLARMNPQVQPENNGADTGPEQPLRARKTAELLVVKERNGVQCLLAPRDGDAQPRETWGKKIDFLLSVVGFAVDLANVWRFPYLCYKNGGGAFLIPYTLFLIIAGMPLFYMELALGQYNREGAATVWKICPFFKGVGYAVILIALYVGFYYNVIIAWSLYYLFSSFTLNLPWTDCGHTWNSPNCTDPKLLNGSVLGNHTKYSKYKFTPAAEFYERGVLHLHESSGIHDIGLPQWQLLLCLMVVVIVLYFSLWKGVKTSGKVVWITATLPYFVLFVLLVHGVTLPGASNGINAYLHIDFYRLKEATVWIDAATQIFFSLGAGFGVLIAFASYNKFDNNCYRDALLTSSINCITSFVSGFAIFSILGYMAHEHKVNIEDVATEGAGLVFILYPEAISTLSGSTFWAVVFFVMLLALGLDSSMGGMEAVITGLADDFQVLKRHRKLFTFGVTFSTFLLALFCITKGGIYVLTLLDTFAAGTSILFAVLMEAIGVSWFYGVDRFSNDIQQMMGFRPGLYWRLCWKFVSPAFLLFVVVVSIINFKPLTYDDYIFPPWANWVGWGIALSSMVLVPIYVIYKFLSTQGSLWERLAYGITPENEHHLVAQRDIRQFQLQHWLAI

Row | Structure (SMILES) | pEC50 [1] | pEC50 [2] | pEC50 [3] | also measured
1 | NC[C@H]1C[C@H]1c1ccccc1 (racemic) [(+/-)-Cis-(2-Phenylcyclopropyl)methylamineHydrochloride] | 5.52 | < 5.00 |  | 
2 | NC[C@H]1C[C@@H]1c1ccc2ccccc2c1 (relative stereo) [trans-(2-Naphthalen-2-ylcyclopropyl)methylamine Hydrochloride] | 5.54 | 6.29 |  | 
3 | c1ccc(CNC[C@H]2C[C@@H]2c2ccccc2)cc1 (relative stereo) [trans-N-Benzyl-(2-phenylcyclopropylmethyl)amine] | 5.24 |  |  | 
4 | CNC[C@H]1C[C@@H]1c1ccccc1 (relative stereo) [trans-N-Methyl-(2-phenylcyclopropylmethyl)amine] | 6.20 | < 5.00 |  | 
5 | NC[C@H]1C[C@@H]1c1cccc(Cl)c1Cl (relative stereo) [trans-[2-(2,3-Dichlorophenyl)cyclopropyl]methylamine Hydrochloride] | 7.96 | 7.85 | 6.46 | 
6 | NC[C@H]1C[C@@H]1c1cccc(F)c1F (relative stereo) [trans-[2-(2,3-Difluorophenyl)cyclopropyl]methylamine Hydrochloride] | 7.00 | 6.44 | < 5.30 | 
7 | Cc1cccc([C@H]2C[C@@H]2CN)c1C (relative stereo) [trans-[2-(2,3-Dimethylphenyl)cyclopropyl]methylamine Hydrochloride] | 8.15 | 8.08 | 6.44 | 
8 | NC[C@H]1C[C@@H]1c1ccc(Cl)cc1Cl (relative stereo) [trans-[2-(2,4-Dichlorophenyl)cyclopropyl]methylamine Hydrochloride] | 7.74 | 7.08 | 7.29 | 
9 | NC[C@H]1C[C@@H]1c1c(F)cccc1F (relative stereo) [trans-[2-(2,6-Difluorophenyl)cyclopropyl]methylamine Hydrochloride] | 7.06 | 5.48 | < 6.00 | 
10 | Cc1ccc([C@H]2C[C@@H]2CN)c(Br)c1 (relative stereo) [trans-[2-(2-Bromo-4-methylphenyl)cyclopropyl]methylamine Hydrochloride] | 7.01 | 6.94 | 6.33 | 
11 | NC[C@H]1C[C@@H]1c1ccc(F)cc1Cl (relative stereo) [trans-[2-(2-Chloro-4-fluorophenyl)cyclopropyl]methylamine Hydrochloride] | 8.52 | 7.66 | 7.04 | pKi [4]: 7.80; pKi [5]: 6.69; pKi [6]: 6.60; pKi [7]: < 5.00; pKi [8]: 5.98; pKi [9]: < 5.00
12 | Cc1cccc(Cl)c1[C@H]1C[C@@H]1CN (relative stereo) [trans-[2-(2-Chloro-6-methylphenyl)cyclopropyl]methylamine Hydrochloride] | 8.46 | 8.15 | 6.14 | 
13 | NC[C@H]1C[C@@H]1c1ccccc1Cl (relative stereo) [trans-[2-(2-Chlorophenyl)cyclopropyl]methylamine Hydrochloride] | 8.29 | 7.49 | 6.77 | 
14 | NC[C@H]1C[C@@H]1c1ccccc1O (relative stereo) [trans-[2-(2-Hydroxyphenyl)cyclopropyl]methylamine Hydrochloride] | 6.79 | 6.31 | 6.29 | 
15 | COc1ccccc1[C@H]1C[C@@H]1CN (relative stereo) [trans-[2-(2-Methoxyphenyl)cyclopropyl]methylamine Hydrochloride] | 7.59 | 6.70 | 5.66 | 
16 | Cc1ccccc1[C@H]1C[C@@H]1CN (relative stereo) [trans-[2-(2-Methylphenyl)cyclopropyl]methylamine Hydrochloride] | 7.64 | 7.28 | 5.79 | 
17 | NC[C@H]1C[C@@H]1c1ccccc1C(F)(F)F (relative stereo) [trans-[2-(2-Trifluoromethylphenyl)cyclopropyl]methylamine Hydrochloride] | 7.31 | 6.46 |  | 
18 | NC[C@H]1C[C@@H]1c1ccc(F)c(F)c1 (relative stereo) [trans-[2-(3,4-Difluorophenyl)cyclopropyl]methylamine Hydrochloride] | 8.05 | 7.55 | 6.24 | 

Row | Structure (SMILES) | pEC50 [1] | pEC50 [2] | pEC50 [3] | also measured
19 | Cc1ccc([C@H]2C[C@@H]2CN)cc1C (relative stereo) [trans-[2-(3,4-Dimethylphenyl)cyclopropyl]methylamine Hydrochloride] | 7.46 | 7.92 | 5.62 | 
20 | NC[C@H]1C[C@@H]1c1cccc(Br)c1 (relative stereo) [trans-[2-(3-Bromophenyl)cyclopropyl]methylamine Hydrochloride] | 7.85 | 6.85 | 5.77 | 
21 | NC[C@H]1C[C@@H]1c1cccc(Cl)c1 (relative stereo) [trans-[2-(3-Chlorophenyl)cyclopropyl]methylamine Hydrochloride] | 8.00 | 7.23 | 5.72 | 
22 | NC[C@H]1C[C@@H]1c1cccc(F)c1 (relative stereo) [trans-[2-(3-Fluorophenyl)cyclopropyl]methylamine Hydrochloride] | 8.48 | 8.44 | 6.36 | 
23 | NC[C@H]1C[C@@H]1c1cccc(O)c1 (relative stereo) [trans-[2-(3-Hydroxyphenyl)cyclopropyl]methylamine Hydrochloride] | 8.48 | 8.26 | 6.61 | 
24 | COc1cccc([C@H]2C[C@@H]2CN)c1 (relative stereo) [trans-[2-(3-Methoxyphenyl)cyclopropyl]methylamine Hydrochloride] | 7.80 | 7.12 | 6.21 | 
25 | Cc1cccc([C@H]2C[C@@H]2CN)c1 (relative stereo) [trans-[2-(3-Methylphenyl)cyclopropyl]methylamine Hydrochloride] | 8.32 | 7.19 | 6.23 | pKi [4]: 7.07; pKi [5]: 6.57; pKi [6]: 5.73; pKi [7]: 5.27; pKi [8]: 5.26; pKi [9]: < 5.00
26 | NC[C@H]1C[C@@H]1c1cccc(C(F)(F)F)c1 (relative stereo) [trans-[2-(3-Trifluoromethylphenyl)cyclopropyl]methylamine Hydrochloride] | 7.52 | 7.11 | 5.83 | 
27 | NC[C@H]1C[C@@H]1c1ccc(Br)cc1 (relative stereo) [trans-[2-(4-Bromophenyl)cyclopropyl]methylamine Hydrochloride] | 6.86 | 5.56 | < 6.00 | 
28 | NC[C@H]1C[C@@H]1c1ccc(Cl)cc1F (relative stereo) [trans-[2-(4-Chloro-2-fluorophenyl)cyclopropyl]methylamine Hydrochloride] | 6.89 | 6.34 | 6.11 | 
29 | NC[C@H]1C[C@@H]1c1ccc(Cl)cc1 (relative stereo) [trans-[2-(4-Chlorophenyl)cyclopropyl]methylamine Hydrochloride] | 7.12 | 6.39 | 5.35 | 
30 | Cc1cc([C@H]2C[C@@H]2CN)ccc1F (relative stereo) [trans-[2-(4-Fluoro-3-methylphenyl)cyclopropyl]methylamine Hydrochloride] | 8.22 | 8.31 | 6.63 | 
31 | COc1ccc([C@H]2C[C@@H]2CN)cc1 (relative stereo) [trans-[2-(4-Methoxyphenyl)cyclopropyl]methylamine Hydrochloride] | 6.04 |  |  | 
32 | Cc1ccc([C@H]2C[C@@H]2CN)cc1 (relative stereo) [trans-[2-(4-Methylphenyl)cyclopropyl]methylamine Hydrochloride] | 6.87 | 7.43 | 5.71 | 
33 | NC[C@H]1C[C@@H]1c1ccc(C(F)(F)F)cc1 (relative stereo) [trans-[2-(4-Trifluoromethylphenyl)cyclopropyl]methylamine Hydrochloride] | 6.11 | < 6.00 |  | 
34 | NC[C@H]1C[C@@H]1c1ccc(F)cc1F [trans-[2-(2,4-Difluorophenyl)cyclopropyl]methylamine Hydrochloride] | 7.38 | 6.38 | 6.26 | 
35 | NC[C@H]1C[C@@H]1c1ccccc1F [trans-[2-(2-Fluorophenyl)cyclopropyl]methylamine Hydrochloride] | 7.54 | 7.16 |  | 
36 | Cc1ccc(Cl)c([C@H]2C[C@@H]2CN)c1F [trans-[2-(6-Chloro-2-fluoro-3-methylphenyl)cyclopropyl]methylamineHydrochloride] | 7.89 | 6.94 | 6.48 | 
